Columns and labels:
[1] = test system: barnyardgrass; assay: Test C preemergence; format: in vivo, Echinochloa crusgalli; conditions: preemergence, 0 to 100 scale (0 no effect, 100 complete control)
Procedure, shortened: (§1)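 Soil-applied (pre) and foliar (post, 1–2 leaf, 2–10 cm) sprays; surfactant-containing non-phytotoxic solvent vehicle; loam/sand substrate. Readout: visual % control at 10 d, greenhouse, versus untreated.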

[2] = test system: blackgrass; assay: Test C preemergence; format: in vivo, Alopecurus myosuroides; conditions: preemergence, 0 to 100 scale (0 no effect, 100 complete control)
Procedure, shortened: as §1

[3] = test system: corn; assay: Test C preemergence; format: in vivo, Zea mays; conditions: preemergence, 0 to 100 scale (0 no effect, 100 complete control)
Procedure, shortened: as §1

[4] = test system: green foxtail; assay: Test C preemergence; format: in vivo, Setaria viridis; conditions: preemergence, 0 to 100 scale (0 no effect, 100 complete control)
Procedure, shortened: as §1

[5] = test system: kochia; assay: Test C preemergence; format: in vivo, Bassia scoparia; conditions: preemergence, 0 to 100 scale (0 no effect, 100 complete control)
Procedure, shortened: as §1

[6] = test system: oat, wild; assay: Test C preemergence; format: in vivo, Avena fatua; conditions: preemergence, 0 to 100 scale (0 no effect, 100 complete control)
Procedure, shortened: as §1

[7] = test system: pigweed, palmer; assay: Test C preemergence; format: in vivo, Amaranthus palmeri; conditions: preemergence, 0 to 100 scale (0 no effect, 100 complete control)
Procedure, shortened: as §1

[8] = test system: ragweed; assay: Test C preemergence; format: in vivo, Ambrosia artemisiifolia; conditions: preemergence, 0 to 100 scale (0 no effect, 100 complete control)
Procedure, shortened: as §1

[9] = test system: ryegrass, Italian; assay: Test C preemergence; format: in vivo, Lolium multiflorum; conditions: preemergence, 0 to 100 scale (0 no effect, 100 complete control)
Procedure, shortened: as §1

[10] = test system: soybean; assay: Test C preemergence; format: in vivo, Glycine max; conditions: preemergence, 0 to 100 scale (0 no effect, 100 complete control)
Procedure, shortened: as §1

[11] = test system: wheat; assay: Test C preemergence; format: in vivo, Triticum aestivum; conditions: preemergence, 0 to 100 scale (0 no effect, 100 complete control)
Procedure, shortened: as §1

[12] = test system: barnyardgrass; assay: Test C postemergence; format: in vivo, Echinochloa crusgalli; conditions: 10 days, 0 to 100 scale (0 no effect, 100 complete control)
Procedure, shortened: as §1

[13] = test system: blackgrass; assay: Test C postemergence; format: in vivo, Alopecurus myosuroides; conditions: 10 days, 0 to 100 scale (0 no effect, 100 complete control)
Procedure, shortened: as §1

[14] = test system: corn; assay: Test C postemergence; format: in vivo, Zea mays; conditions: 10 days, 0 to 100 scale (0 no effect, 100 complete control)
Procedure, shortened: as §1

[15] = test system: green foxtail; assay: Test C postemergence; format: in vivo, Setaria viridis; conditions: 10 days, 0 to 100 scale (0 no effect, 100 complete control)
Procedure, shortened: as §1

[16] = test system: kochia; assay: Test C postemergence; format: in vivo, Bassia scoparia; conditions: 10 days, 0 to 100 scale (0 no effect, 100 complete control)
Procedure, shortened: as §1

[17] = test system: oat, wild; assay: Test C postemergence; format: in vivo, Avena fatua; conditions: 10 days, 0 to 100 scale (0 no effect, 100 complete control)
Procedure, shortened: as §1

[18] = test system: pigweed, palmer; assay: Test C postemergence; format: in vivo, Amaranthus palmeri; conditions: 10 days, 0 to 100 scale (0 no effect, 100 complete control)
Procedure, shortened: as §1

[19] = test system: ragweed; assay: Test C postemergence; format: in vivo, Ambrosia artemisiifolia; conditions: 10 days, 0 to 100 scale (0 no effect, 100 complete control)
Procedure, shortened: as §1

[20] = test system: ryegrass, Italian; assay: Test C postemergence; format: in vivo, Lolium multiflorum; conditions: 10 days, 0 to 100 scale (0 no effect, 100 complete control)
Procedure, shortened: as §1

[21] = test system: soybean; assay: Test C postemergence; format: in vivo, Glycine max; conditions: 10 days, 0 to 100 scale (0 no effect, 100 complete control)
Procedure, shortened: as §1

[22] = test system: wheat; assay: Test C postemergence; format: in vivo, Triticum aestivum; conditions: 10 days, 0 to 100 scale (0 no effect, 100 complete control)
Procedure, shortened: as §1

[23] = test system: galium; assay: Test C postemergence; format: in vivo, Galium aparine; conditions: 10 days, 0 to 100 scale (0 no effect, 100 complete control)
Procedure, shortened: as §1

[24] = test system: horseweed; assay: Test C postemergence; format: in vivo, Erigeron canadensis; conditions: 10 days, 0 to 100 scale (0 no effect, 100 complete control)
Procedure, shortened: as §1

[25] = test system: barnyardgrass; assay: Test D flooded paddy test; format: in vivo, Echinochloa crus-galli; conditions: 250 g ai/ha, applied to paddy water, visual rating after 13 to 14 days, scale 0 to 100 (0 no effect, 100 complete control)
Procedure, shortened: (§2)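 2-leaf plants; flood 3 cm above soil; compound dosed into paddy water; greenhouse 13–14 d; visual rating vs controls, 0–100 (100 = complete control); dash = not tested.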

[26] = test system: ducksalad; assay: Test D flooded paddy test; format: in vivo, Heteranthera limosa; conditions: 250 g ai/ha, applied to paddy water, visual rating after 13 to 14 days, scale 0 to 100 (0 no effect, 100 complete control)
Procedure, shortened: as §2

[27] = test system: rice; assay: Test D flooded paddy test; format: in vivo, Oryza sativa; conditions: 250 g ai/ha, applied to paddy water, visual rating after 13 to 14 days, scale 0 to 100 (0 no effect, 100 complete control)
Procedure, shortened: as §2

[28] = test system: sedge, umbrella; assay: Test D flooded paddy test; format: in vivo, Cyperus difformis; conditions: 250 g ai/ha, applied to paddy water, visual rating after 13 to 14 days, scale 0 to 100 (0 no effect, 100 complete control)
Procedure, shortened: as §2

`COc1ncn(-c2cccc(C(=O)N3C[C@H](C)Oc4c(Cl)cccc43)c2)n1` [Compound 310] was tested, and the “Barnyardgrass plant response rating” value ([1]; 500 g ai/ha) was 80, the “Barnyardgrass plant response rating” value ([1]; Test C, 125 g ai/ha) was 20 and the “Blackgrass plant response rating” value ([2]; 500 g ai/ha) was 50. The “Blackgrass plant response rating” value ([2]; Test C, 125 g ai/ha) was 10, the “Corn plant response rating” value ([3]; 500 g ai/ha) was 0 and the “Corn plant response rating” value ([3]; Test C, 125 g ai/ha) was 0. The “Foxtail, Green plant response rating” value ([4]; 500 g ai/ha) was 100, the “Foxtail, Green plant response rating” value ([4]; Test C, 125 g ai/ha) was 100 and the “Kochia plant response rating” value ([5]; 500 g ai/ha) was 80. For the same molecule, the “Kochia plant response rating” value ([5]; Test C, 125 g ai/ha) was 50, the “Oat, Wild plant response rating” value ([6]; 500 g ai/ha) was 60 and the “Oat, Wild plant response rating” value ([6]; Test C, 125 g ai/ha) was 0. The “Pigweed, Palmer plant response rating” value ([7]; 500 g ai/ha) was 100, the “Pigweed, Palmer plant response rating” value ([7]; Test C, 125 g ai/ha) was 80 and the “Ragweed plant response rating” value ([8]; 500 g ai/ha) was 0. The “Ragweed plant response rating” value ([8]; Test C, 125 g ai/ha) was 0, the “Ryegrass, Italian plant response rating” value ([9]; 500 g ai/ha) was 80 and the “Ryegrass, Italian plant response rating” value ([9]; Test C, 125 g ai/ha) was 30. The “Soybean plant response rating” value ([10]; 500 g ai/ha) was 0, the “Soybean plant response rating” value ([10]; Test C, 125 g ai/ha) was 40 and the “Wheat plant response rating” value ([11]; 500 g ai/ha) was 0. For the same molecule, the “Wheat plant response rating” value ([11]; Test C, 125 g ai/ha) was 0, the “Plant response rating, Barnyardgrass” value ([12]; 500 g ai/ha, postemergence) was 80 and the “Plant response rating, Barnyardgrass” value ([12]; Postemergence, 125 g ai/ha) was 20. For the same molecule, the “Plant response rating, Blackgrass” value ([13]; 500 g ai/ha, postemergence) was 90, the “Plant response rating, Blackgrass” value ([13]; Postemergence, 125 g ai/ha) was 50 and the “Plant response rating, Corn” value ([14]; 500 g ai/ha, postemergence) was 60. The “Plant response rating, Corn” value ([14]; Postemergence, 125 g ai/ha) was 10, the “Plant response rating, Foxtail, Green” value ([15]; 500 g ai/ha, postemergence) was 50 and the “Plant response rating, Foxtail, Green” value ([15]; Postemergence, 125 g ai/ha) was 50. The “Plant response rating, Kochia” value ([16]; 500 g ai/ha, postemergence) was 90, the “Plant response rating, Kochia” value ([16]; Postemergence, 125 g ai/ha) was 70 and the “Plant response rating, Oat, Wild” value ([17]; 500 g ai/ha, postemergence) was 40. The “Plant response rating, Oat, Wild” value ([17]; Postemergence, 125 g ai/ha) was 0, the “Plant response rating, Pigweed, Palmer” value ([18]; 500 g ai/ha, postemergence) was 90 and the “Plant response rating, Pigweed, Palmer” value ([18]; Postemergence, 125 g ai/ha) was 70. For the same molecule, the “Plant response rating, Ragweed” value ([19]; 500 g ai/ha, postemergence) was 50, the “Plant response rating, Ragweed” value ([19]; Postemergence, 125 g ai/ha) was 30 and the “Plant response rating, Ryegrass, Italian” value ([20]; 500 g ai/ha, postemergence) was 80. For the same molecule, the “Plant response rating, Ryegrass, Italian” value ([20]; Postemergence, 125 g ai/ha) was 30, the “Plant response rating, Soybean” value ([21]; 500 g ai/ha, postemergence) was 100 and the “Plant response rating, Soybean” value ([21]; Postemergence, 125 g ai/ha) was 90. The “Plant response rating, Wheat” value ([22]; 500 g ai/ha, postemergence) was 50, the “Plant response rating, Wheat” value ([22]; Postemergence, 125 g ai/ha) was 10 and the “Plant response rating, Galium” value ([23]; 500 g ai/ha, postemergence) was 90. For the same molecule, the “Plant response rating, Galium” value ([23]; Postemergence, 125 g ai/ha) was 90, the “Plant response rating, Horseweed” value ([24]; 500 g ai/ha, postemergence) was 30 and the “Plant response rating, Horseweed” value ([24]; Postemergence, 125 g ai/ha) was 0. The “Plant response rating, Barnyardgrass (Flood)” value [25] was 10, the “Plant response rating, Ducksalad (Flood)” value [26] was 75 and the “Plant response rating, Rice (Flood)” value [27] was 0. For the same molecule, the “Plant response rating, Sedge, Umbrella (Flood)” value [28] was 80.

Source: patent US20260262643A1, “HERBICIDAL BENZOXAZINES” (FMC CORPORATION, priority 2022, published 2026)
